Experimental findings from ChEMBL document CHEMBL1129758, “Rapid synthesis of novel dipeptide inhibitors of human collagenase and gelatinase using solid phase chemistry” (Bioorg Med Chem Lett, 1996) are described below.

One test deals with T1, Interstitial collagenase (Homo sapiens, UniProt P03956).
T1 sequence (P03956 whole entry): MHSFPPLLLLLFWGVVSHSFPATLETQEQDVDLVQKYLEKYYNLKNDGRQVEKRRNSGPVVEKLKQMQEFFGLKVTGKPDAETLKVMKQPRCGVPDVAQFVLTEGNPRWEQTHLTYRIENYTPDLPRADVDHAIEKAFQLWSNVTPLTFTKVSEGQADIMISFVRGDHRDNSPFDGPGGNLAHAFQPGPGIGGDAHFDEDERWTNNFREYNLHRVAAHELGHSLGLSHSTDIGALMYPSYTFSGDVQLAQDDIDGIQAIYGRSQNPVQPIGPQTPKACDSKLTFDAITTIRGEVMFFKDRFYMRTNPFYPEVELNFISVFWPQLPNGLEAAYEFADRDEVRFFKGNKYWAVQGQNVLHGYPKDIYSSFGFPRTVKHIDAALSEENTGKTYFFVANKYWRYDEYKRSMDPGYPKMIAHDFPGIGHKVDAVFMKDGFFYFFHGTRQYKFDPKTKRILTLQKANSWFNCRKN
The test can be described thus: Inhibitory activity against human fibroblast collagenase (MMP-1).

The target in test [1] is Matrix metalloproteinase-9 (Homo sapiens, UniProt P14780). As to the kind of experiment: Compound was tested for its inhibitory activity against 92 kD gelatinase (MMP-9).
Chain of Matrix metalloproteinase-9 (P14780 whole entry): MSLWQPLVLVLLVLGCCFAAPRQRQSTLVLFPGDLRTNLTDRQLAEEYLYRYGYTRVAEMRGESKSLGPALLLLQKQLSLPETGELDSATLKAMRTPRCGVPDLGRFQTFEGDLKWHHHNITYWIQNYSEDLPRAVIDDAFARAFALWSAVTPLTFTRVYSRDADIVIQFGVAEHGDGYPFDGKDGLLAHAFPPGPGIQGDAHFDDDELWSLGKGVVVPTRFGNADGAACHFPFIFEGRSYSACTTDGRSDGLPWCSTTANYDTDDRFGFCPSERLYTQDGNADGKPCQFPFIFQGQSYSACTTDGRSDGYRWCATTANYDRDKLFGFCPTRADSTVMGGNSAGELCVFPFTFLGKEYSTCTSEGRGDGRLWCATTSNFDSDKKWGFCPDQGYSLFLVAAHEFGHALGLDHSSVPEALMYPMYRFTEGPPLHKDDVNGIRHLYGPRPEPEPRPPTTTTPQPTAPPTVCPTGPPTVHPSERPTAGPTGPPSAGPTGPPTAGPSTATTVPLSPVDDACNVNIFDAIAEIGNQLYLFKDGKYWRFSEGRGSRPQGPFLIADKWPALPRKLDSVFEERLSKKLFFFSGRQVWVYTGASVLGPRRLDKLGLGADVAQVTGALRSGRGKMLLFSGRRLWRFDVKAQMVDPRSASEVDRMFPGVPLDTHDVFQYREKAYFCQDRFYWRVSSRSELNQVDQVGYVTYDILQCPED

Counter-ions that a name gives are not always drawn. *1 amine or outer side, *2 acyl side, *3 side chain or, on linkers, in order; H or OH if unused. Where a SMILES comes first, the peptide text is derived from it. [ ]: non-standard residue; d: D form. The star is where a group is joined. Hydrocinnamoyl = O=C(CCc1ccccc1)*; 3Pal = N[C@@H](Cc1cccnc1)C(=O)O; 2Thi = N[C@@H](Cc1cccs1)C(=O)O; CO = O=C([*:1])[*:2]; Tfa = O=C(C(F)(F)F)*; NHPh = c1ccc(N*)cc1

For `NC(=O)[C@H](Cc1ccccc1)NC(=O)[C@H](CS)NC(=O)c1ccc2c(c1)OCO2`, the half-inhibitory concentration (IC50) was 215 nM at Interstitial collagenase and 19 nM in test [1]. As to `NC(=O)[C@H](Cc1cccnc1)NC(=O)[C@H](CC(=O)O)NC(=O)c1ccc2[nH]nnc2c1`, the midpoint of inhibition on Interstitial collagenase, the IC50, lay at 453 nM. Regarding `NC(=O)[C@H](Cc1ccccc1)NC(=O)[C@H](CS)NC(=O)c1ccncc1`, the 50% inhibitory concentration (IC50) was found to be 93 nM against Interstitial collagenase and 41 nM in test [1]. For the compound `NC(=O)[C@H](Cc1cccnc1)NC(=O)[C@H](CS)NC(=O)c1ccc2[nH]nnc2c1`, the IC50 against Interstitial collagenase was determined as 12 nM; in test [1], 42 nM. For `NC(=O)[C@H](Cc1ccccc1)NC(=O)[C@H](CS)NC(=O)c1ccoc1`, in that order: 171 nM and 84 nM.

On to `NC(=O)[C@H](Cc1ccccc1)NC(=O)[C@H](CS)NC(=O)COc1ccccc1`, for which the concentration for half-maximal inhibition (IC50) is 598 nM at Interstitial collagenase and 34 nM in test [1]. For `NC(=O)[C@H](Cc1ccccc1)NC(=O)[C@H](CS)NC(=O)c1cn[nH]c1`, in that order: 26 nM and 71 nM. For `NC(=O)[C@H](Cc1ccccc1)NC(=O)[C@H](CS)NC(=O)c1cccs1`, in that order: 105 nM and 49 nM.

Take `NC(=O)[C@H](Cc1ccccc1)NC(=O)[C@H](CS)NC(=O)c1ccc(-c2ccccc2)cc1`: the IC50 came out at 425 nM against Interstitial collagenase and 21 nM in test [1]. With `NC(=O)[C@H](Cc1ccccc1)NC(=O)[C@H](CS)NC(=O)c1ccsc1`, the 50% inhibitory concentration (IC50) on Interstitial collagenase worked out at 130 nM; in test [1], 82 nM. For `NC(=O)[C@H](Cc1ccccc1)NC(=O)[C@H](CS)NC(=O)c1ccc(=O)[nH]c1`, in that order: 83 nM and 41 nM. As to `NC(=O)[C@H](Cc1ccccc1)NC(=O)[C@H](CS)NC(=O)c1ccc2[nH]nnc2c1`, the 50% inhibitory concentration (IC50) on Interstitial collagenase worked out at 8 nM; in test [1] it was 24 nM. `NC(=O)[C@H](Cc1cccnc1)NC(=O)[C@H](CS)NC(=O)c1cn[nH]c1`: the figures for the 50% inhibitory concentration (IC50) (on Interstitial collagenase; in test [1]) were 26 nM and 71 nM, respectively.

For the compound `NC(=O)[C@H](Cc1ccccc1)NC(=O)[C@H](CS)NC(=O)c1ccc(-n2cccc2)nc1`, the 50% inhibitory concentration (IC50) against Interstitial collagenase was 250 nM; in test [1] it was 15 nM. With `CN(C)c1ccc(C(=O)N[C@@H](CS)C(=O)N[C@@H](Cc2ccccc2)C(N)=O)cc1`, the figures for the IC50 (at Interstitial collagenase; in test [1]) were 147 nM and 80 nM, respectively. With `NC(=O)[C@H](Cc1cccs1)NC(=O)[C@H](CS)NC(=O)c1ccc2nn[nH]c2c1`, the figures for the IC50 (against Interstitial collagenase; in test [1]) were 34 nM and 102 nM, respectively. For `CC(=O)N[C@@H](CS)C(=O)N[C@@H](Cc1ccccc1)C(N)=O` (Ac-Cys-Phe-NH2), the IC50 against Interstitial collagenase was over 100000 nM.

Turning to `CC(=O)N[C@@H](CS)C(=O)N[C@@H](Cc1c[nH]c2ccccc12)C(N)=O` (Ac-Cys-Trp-NH2), it took 5000 nM to reach half-maximal inhibition against Interstitial collagenase (IC50). On to `CC(=O)N[C@@H](CS)C(=O)N[C@H](C(N)=O)C(C)C` (Ac-Cys-Val-NH2), for which the midpoint of inhibition against Interstitial collagenase, the IC50, lay at 7000 nM. Still for that read-out and setting: the value for `CC(=O)N[C@@H](CS)C(=O)N[C@@H](Cc1cccs1)C(N)=O` (Ac-Cys-[2Thi]-NH2) was 4000 nM; that for `CC(=O)N[C@@H](CS)C(=O)N[C@@H](Cc1cccnc1)C(N)=O` (Ac-Cys-[3Pal]-NH2) was 4000 nM. For `NC(=O)[C@H](Cc1ccccc1)NC(=O)[C@H](CS)NC(=O)CCc1ccccc1` (Hydrocinnamoyl-Cys-Phe-NH2), the half-inhibitory concentration (IC50) is 3500 nM against Interstitial collagenase and 38 nM in test [1]. For `NC(=O)[C@H](Cc1ccccc1)NC(=O)[C@H](CS)NC(=O)C(F)(F)F` (Tfa-Cys-Phe-NH2), in that order: 40 nM and over 1000 nM. Regarding `COC(=O)[C@H](Cc1ccccc1)NC(=O)[C@H](CS)NC(=O)C(F)(F)F` (Tfa-Cys-Phe-OMe), the 50% inhibitory concentration (IC50) against Interstitial collagenase was 63 nM; in test [1], over 1000 nM. On to `NC(=O)[C@H](Cc1ccccc1)NC(=O)[C@H](CS)NC(=O)Nc1ccccc1` ({NHPh-CO}-Cys-Phe-NH2), for which the IC50 was 40 nM on Interstitial collagenase and 11 nM in test [1].
